Measured values from patent publication US11850244B2, “Drug delivery systems and methods for treatment of bladder dysfunction or disorder using trospium” (TARIS BIOMEDICAL LLC, priority 2012, dated 2023).
“Also recorded” adds a separate entry of the source. Where a name gives a salt, the structure may show the parent alone.

What was measured:
urothelium = experiment: Intravesical pharmacology screen in rat bladder perfusion model with acetic acid; conditions: for acetic acid induced increased intravesical pressure / inter-contraction intervals compared to the control: 0.05-100 μg/mL intravesical, 0.5% acetic acid; for acetic acid induced increased intravesical pressure: FIGS. 7A-7C; for inter-contraction intervals compared to the control: FIGS. 7D-7F
Description: Intercontraction intervals and intravesical pressure were measured during a control periods and treatment periods.
The rats' bladder catheters were connected to a pressure transducer and syringe-pump to allow perfusion. The bladders were perfused (50 μL/minute) with saline for one hour to obtain stable micturition cycles. The perfusion then was switched to a weak acidic solution sufficient to stimulate the noxious receptors in the urothelium without inducing structural or metabolic damage to the tissue. […] A 45 minute baseline was recorded.
The vehicle or antimuscarinic drugs were administered intravesically at escalating concentrations (see Table 2 for drugs and concentrations used) with acetic acid instillation (50 μL/minute). Each dose was administered for a 30-minute period. The intravesical pressure and intercontraction interval was recorded during the last 30 minutes of the control period (baseline) and during the 30 minutes of each treatment period, with one treatment period corresponding to one dose of drug.

[1] = Antimuscarinic screen in rat bladder perfusion model (plasma, urine and tissue drug levels); conditions: for total recovery: theoretical dose 3.3 mg/day
Excerpt: The drugs were perfused at varying rates, concentrations, and times. Serial blood and urine samples were taken, and tissues (bladder, ureter, kidney, and prostate) were sampled to determine drug levels and distribution. Tissue histological exams were completed for safety.

[2] = system: carbachol 30 μM (M1, M2, M3, AChRa2 agonist); conditions: low dose protocol 0.1 and 0.5 μg/mL, intravesical; cited from earlier work
normal bladder activity = conditions: human urine after oral dosing infused into rat bladders; cited from earlier work
[3] = oral therapeutic doses for 5 days; cited from earlier work

Which results are given for CCN(CC)CC#CCOC(=O)C(O)(c1ccccc1)C1CCCCC1 (stereo not drawn) [Oxybutynin, oxybutynin chloride]?
acetic acid induced increased intravesical pressure (urothelium): dose dependent reductions; inter-contraction intervals compared to the control (urothelium): neither of which altered intercontraction interval; inter-contraction intervals compared to the control (urothelium; listed as oxybutynin hydrochloride): little effect; systemic absorption following intravesical administration ([1]; compared among the three drugs): significantly higher systemic absorption; estimated intravesical absorption ([1]; rat, in vivo): 83 % of the intravesical dose; Effective Urine Concentration ([1]; rat, intravesical perfusion): 1 to 10 µg/mL; total recovery [1]: low total recovery; intercontraction interval ratio to baseline [2]: performed similarly

What does the source list for O=C(O[C@H]1C[C@H]2CC[C@@H](C1)[N+]21CCCC1)C(O)(c1ccccc1)c1ccccc1 [Trospium, trospium chloride]?
effect on bladder capacity and intercontraction interval (normal bladder activity): more positive effect; acetic acid induced increased intravesical pressure (urothelium): dose dependent reductions; inter-contraction intervals compared to the control (urothelium; listed as trospium): increase intercontraction interval; also recorded: increased the inter-contraction intervals compared to the control; inter-contraction intervals compared to the control (urothelium; listed as trospium chloride): kept the inter-contraction intervals closer to the baseline measurement; urinary retention or significant systemic exposure (urothelium; at intravesical concentration normalizing urothelial sensory function): did not produce urinary retention or significant systemic exposure; concentration range showing activity (urothelium; intravesical): 0.05 to 100 µg/mL; urine concentration ([1]; 24-48 hours after exposure): about 150 μg/mL; urine concentration ([1]; 48-72 hours after exposure): > 125 µg/mL; Cmax ([1]; rat, in vivo): 0.06 to 0.7 ng/mL; Effective Urine Concentration ([1]; rat, intravesical perfusion): 1 to 10 µg/mL; Urine to Plasma Ratio ([1]; rat, intravesical perfusion): 15,380; total recovery [1]: near the theoretical dose; active compound excreted in the human's urine [3]: 60-80%; intercontraction interval ratio to baseline [2]: performed similarly

For dimethindene maleate, which “intercontraction interval ratio to baseline” value [2] is on record?
Its value is “performed similarly”.

Which “acetic acid induced increased intravesical pressure” value (urothelium) does the source give for Cc1ccc(O)c([C@H](CCN(C(C)C)C(C)C)c2ccccc2)c1 [Toterodine, tolterodine tartrate] here?
The value was “dose dependent reductions”.

And the “inter-contraction intervals compared to the control” value (urothelium; listed as tolterodine)?
Its value is “neither of which altered intercontraction interval”.

And the “inter-contraction intervals compared to the control” value (urothelium; listed as tolterodine tartrate)?
Its value is “little effect”.

And the “Effective Urine Concentration” value ([1]; rat, intravesical perfusion)?
Its value is 1 to 10 µg/mL.
